# Tested on: RNA polymerase II Serine 5 phosphorylation (Rpb1 CTD), downstream substrate of CDK7
# Assay: Imaging-based cellular RNA PolII Ser5 phosphorylation assay in A549 cells
# Assay type: cell-based, human
# Settings: Homo sapiens, A549, 3 h, challenged with compound for 3 hours, read-out: pRNA polII Ser5 (A549) pIC50 (converted)
# Method in brief: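 A549 cells seeded 20 h in DMEM with 1% FBS, then exposed to compound for 3 h at 37 °C; fixed, methanol-permeabilized and immunostained for phospho-Rpb1 CTD Ser5, read by automated imaging. Signal normalized to DMSO (high) and 10 μM LDC4297 (low) controls; IC50 from four-parameter fit of % control vs concentration.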
row,SMILES,IC50 [µM]
1,CN1CC[C@H](C(=O)N2Cc3nc(NC4CCOCC4)ncc3[C@@H]3C[C@@H]32)[C@@H](c2ccccc2)C1 [Compound 199],~0.0589
2,CO[C@]1(C)CC[C@@H](Nc2ncc3c(n2)CN(C(=O)[C@H]2CCN(C)C[C@@H]2c2ccccc2)[C@H](C)C3)CC1 [Compound 10],0.158
3,C[C@@H]1Cc2cnc(NC3CCOCC3)nc2CN1C(=O)[C@@H]1CC[C@@H](N(C)C)CN1c1ccccc1 (mixture of isomers) [Compound 167],5.75
4,C[C@@H]1Cc2cnc(N[C@H](CO)c3ccccc3)nc2CN1C(=O)[C@H]1CCN(C)C[C@@H]1c1ccccc1 [Compound 72],0.2
5,C[C@@H]1Cc2cnc(N[C@H]3CCC(=O)N(C)C3)nc2CN1C(=O)[C@H]1CCN(C)C[C@@H]1c1ccccc1 (relative stereo) [Compound 7],0.933
6,C[C@@H]1Cc2cnc(Nc3ccnn3C)nc2CN1C(=O)[C@H]1CCN(C)C[C@@H]1c1ccccc1 [Compound 79],2.29
7,C[C@@H]1Cc2cnc(NCc3ccn(C)n3)nc2CN1C(=O)[C@H]1CCN(C)C[C@@H]1c1ccccc1 [Compound 1],~0.0457
8,CO[C@H]1CC[C@H](Nc2ncc3c(n2)CN(C(=O)[C@H]2CCN(C)C[C@@H]2c2ccc(C)nc2)[C@H](C)C3)CC1 (relative stereo) [Compound 110],0.437
9,C[C@@H]1Cc2cnc(NCc3ccn(C)c3)nc2CN1C(=O)[C@H]1CCN(C)C[C@@H]1c1ccccc1 [Compound 60],0.214
10,C[C@@H]1Cc2cnc(NC[C@H]3CCOC3)nc2CN1C(=O)[C@H]1CCN(C)C[C@@H]1c1ccccc1 [Compound 53],0.575
11,CC(C)n1cc(Nc2ncc3c(n2)CN(C(=O)[C@H]2CCN(C)C[C@@H]2c2ccccc2)[C@H](C)C3)cn1 [Compound 89],0.0708
12,C[C@@H]1Cc2cnc(NCc3ccccc3)nc2CN1C(=O)[C@H]1CCN(C)C[C@@H]1c1ccccc1 [Compound 43],0.107
13,C[C@@H]1Cc2cnc(NCc3ccn(C)n3)nc2CN1C(=O)[C@@H]1CCN(C)C[C@H]1c1cccc(OC(F)(F)F)c1 (relative stereo) [Compound 127],1.51
14,C[C@@H]1Cc2cnc(NC3CCOCC3)nc2CN1C(=O)[C@H]1CCN(C)C[C@@H]1c1ccc(Cl)c(F)c1 [Compound 122b],~0.0631
15,C[C@H](Nc1ncc2c(n1)CN(C(=O)[C@H]1CCN(C)C[C@@H]1c1ccccc1)[C@H](C)C2)c1ccccn1 [Compound 20],~0.0141

# The next lines start with the values.
row,IC50 [µM],SMILES
1,0.141,C[C@@H]1Cc2cnc(N[C@H]3CCC[C@H](O)C3)nc2CN1C(=O)[C@H]1CCN(C)C[C@@H]1c1ccccc1 [Compound 59]
2,0.132,C[C@@H]1Cc2cnc(NCc3ccsc3)nc2CN1C(=O)[C@H]1CCN(C)C[C@@H]1c1ccccc1 [Compound 48]
3,0.617,C[C@@H]1Cc2cnc(NC[C@@H]3CCOC3)nc2CN1C(=O)[C@H]1CCN(C)C[C@@H]1c1ccccc1 [Compound 62]
4,0.135,"CC(C)N1CC[C@H](C(=O)N2Cc3nc(NC4CCOCC4)ncc3C[C@H]2C)[C@@H](c2cccc(Cl)c2)C1 (single isomer, unassigned) [Compound 160]"
5,1.32,C[C@@H]1Cc2cnc(NC[C@@H]3CCCO3)nc2CN1C(=O)[C@H]1CCN(C)C[C@@H]1c1ccccc1 [Compound 67]
6,0.288,"C[C@H]1Cc2cnc(NC3CCOCC3)cc2CN1C(=O)[C@H]1CCN(C)C[C@@H]1c1ccccc1 (single isomer, unassigned) [Compound 171a]"
7,~0.0141,C[C@@H]1Cc2cnc(N[C@H](C)c3ccccc3)nc2CN1C(=O)[C@H]1CCN(C)C[C@@H]1c1ccccc1 [Compound 22]
8,3.63,CN1CC[C@H](C(=O)N2Cc3nc(NC4CCOCC4)ncc3C(C)(C)C2)[C@@H](c2ccccc2)C1 [Compound 193]
9,0.0589,C[C@@H]1Cc2cnc(NC3CCC(OC(F)F)CC3)nc2CN1C(=O)[C@H]1CCN(C)C[C@@H]1c1ccccc1 (stereo partly shown) [Compound 69]
10,1.38,C[C@@H]1Cc2cnc(NCc3ccn(C)n3)nc2CN1C(=O)N1CCN(C)C[C@@H]1c1ccccc1 [Compound 213]
